Data as given in the supplement of paper PMC10307832.

Key:
Test in all cases: relative viability (nuclei count vs DMSO), 5 days (fraction); higher = more cells survive
NCI-H2342 = test system: NCI-H2342
In short: (§1)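 Lung cancer cell lines in 1536-well plates got either a single drug or a fixed anchor-drug dose together with five library-drug doses (not always all listed) in √10 steps, by pin tool, on the day after seeding. Nuclei were counted after 5 days, and relative viability is the treated-to-vehicle ratio of nuclei counts. Values are medians of duplicate plates.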

NCI-H1437 = test system: NCI-H1437
In short: as §1

NCI-H596 = test system: NCI-H596
In short: as §1

NCI-H1299 = test system: NCI-H1299
In short: as §1

NCI-H1623 = test system: NCI-H1623
In short: as §1

EBC-1 = test system: EBC-1
In short: as §1

NCI-H1355 = test system: NCI-H1355
In short: as §1

A549 = test system: A549
In short: as §1

NCI-H1703 = test system: NCI-H1703
In short: as §1

Calu-6 = test system: Calu-6
In short: as §1

LCLC-97TM1 = test system: LCLC-97TM1
In short: as §1

IA-LM = test system: IA-LM
In short: as §1

With `Cc1cn(-c2cc(NC(=O)c3ccc(C)c(Nc4nccc(-c5cccnc5)n4)c3)cc(C(F)(F)F)c2)cn1` [Nilotinib] + COc1cc2c(Oc3ccc(NC(=O)C4(C(=O)Nc5ccc(F)cc5)CC4)cc3F)ccnc2cc1OCCCN1CCOCC1 [Foretinib] (partner 0.25 µM) the relative viability (NCI-H2342; first compound 0.001 µM) was 0.968, the relative viability (NCI-H2342; first compound 0.003162 µM) was 1.1 and the relative viability (NCI-H2342; first compound 0.03162 µM) was 0.979. For the same compound, the relative viability (NCI-H2342; first compound 0.1 µM) was 1, the relative viability (NCI-H1437; first compound 0.001 µM) was 1.2 and the relative viability (NCI-H1437; first compound 0.003162 µM) was 1.39. It also gave a relative viability (NCI-H1437; first compound 0.01 µM) of 1.26, a relative viability (NCI-H1437; first compound 0.03162 µM) of 1.03 and a relative viability (NCI-H1437; first compound 0.1 µM) of 1.27. It also gave a relative viability (NCI-H596; first compound 0.001 µM) of 0.732, a relative viability (NCI-H596; first compound 0.003162 µM) of 0.622 and a relative viability (NCI-H596; first compound 0.01 µM) of 0.729. It also gave a relative viability (NCI-H596; first compound 0.03162 µM) of 0.937, a relative viability (NCI-H596; first compound 0.1 µM) of 0.601 and a relative viability (NCI-H1299; first compound 0.001 µM) of 1.11. It also gave a relative viability (NCI-H1299; first compound 0.01 µM) of 1.17, a relative viability (NCI-H1299; first compound 0.03162 µM) of 1.19 and a relative viability (NCI-H1299; first compound 0.1 µM) of 1.07. It also gave a relative viability (NCI-H1623; first compound 0.001 µM) of 0.789, a relative viability (NCI-H1623; first compound 0.003162 µM) of 0.815 and a relative viability (NCI-H1623; first compound 0.01 µM) of 0.873. The relative viability (NCI-H1623; first compound 0.03162 µM) was 0.667, the relative viability (NCI-H1623; first compound 0.1 µM) was 0.791 and the relative viability (EBC-1; first compound 0.001 µM) was 0.0869. It also gave a relative viability (EBC-1; first compound 0.003162 µM) of 0.101, a relative viability (EBC-1; first compound 0.01 µM) of 0.105 and a relative viability (EBC-1; first compound 0.1 µM) of 0.112. For the same compound, the relative viability (NCI-H1355; first compound 0.001 µM) was 0.907, the relative viability (NCI-H1355; first compound 0.003162 µM) was 1.19 and the relative viability (NCI-H1355; first compound 0.01 µM) was 1.25. For the same compound, the relative viability (NCI-H1355; first compound 0.03162 µM) was 0.893, the relative viability (NCI-H1355; first compound 0.1 µM) was 0.992 and the relative viability (A549; first compound 0.001 µM) was 1.03. It also gave a relative viability (A549; first compound 0.01 µM) of 1.15, a relative viability (A549; first compound 0.1 µM) of 0.95 and a relative viability (NCI-H1703; first compound 0.001 µM) of 0.337. The relative viability (NCI-H1703; first compound 0.1 µM) was 0.409, the relative viability (Calu-6; first compound 0.001 µM) was 0.726 and the relative viability (Calu-6; first compound 0.003162 µM) was 0.897. It also gave a relative viability (Calu-6; first compound 0.01 µM) of 0.934, a relative viability (Calu-6; first compound 0.03162 µM) of 0.644 and a relative viability (Calu-6; first compound 0.1 µM) of 0.801. For the same compound, the relative viability (LCLC-97TM1; first compound 0.001 µM) was 0.902, the relative viability (LCLC-97TM1; first compound 0.003162 µM) was 1.05 and the relative viability (LCLC-97TM1; first compound 0.01 µM) was 0.956. For the same compound, the relative viability (LCLC-97TM1; first compound 0.03162 µM) was 0.883, the relative viability (LCLC-97TM1; first compound 0.1 µM) was 0.885 and the relative viability (IA-LM; first compound 0.001 µM) was 1.14. It also gave a relative viability (IA-LM; first compound 0.003162 µM) of 1.23, a relative viability (IA-LM; first compound 0.01 µM) of 1.33 and a relative viability (IA-LM; first compound 0.1 µM) of 1.17.
`CCNC(=O)c1noc(-c2cc(C(C)C)c(O)cc2O)c1-c1ccc(CN2CCOCC2)cc1` [Luminespib] + N=C(N)NC(=N)NCCc1ccccc1 [Phenformin] (partner 250 µM) showed a relative viability (NCI-H2342; first compound 0.002 µM) of 0.549, a relative viability (NCI-H2342; first compound 0.006325 µM) of 0.581 and a relative viability (NCI-H2342; first compound 0.02 µM) of 0.454. The relative viability (NCI-H2342; first compound 0.06325 µM) was 0.606, the relative viability (NCI-H2342; first compound 0.2 µM) was 0.355 and the relative viability (NCI-H1437; first compound 0.002 µM) was 0.325. The relative viability (NCI-H1437; first compound 0.006325 µM) was 0.3, the relative viability (NCI-H1437; first compound 0.02 µM) was 0.358 and the relative viability (NCI-H1437; first compound 0.06325 µM) was 0.173. The relative viability (NCI-H1437; first compound 0.2 µM) was 0.154, the relative viability (NCI-H596; first compound 0.002 µM) was 0.648 and the relative viability (NCI-H596; first compound 0.006325 µM) was 0.621. For the same compound, the relative viability (NCI-H596; first compound 0.02 µM) was 0.588, the relative viability (NCI-H596; first compound 0.06325 µM) was 0.61 and the relative viability (NCI-H596; first compound 0.2 µM) was 0.58. The relative viability (NCI-H1623; first compound 0.002 µM) was 0.55, the relative viability (NCI-H1623; first compound 0.006325 µM) was 0.536 and the relative viability (NCI-H1623; first compound 0.02 µM) was 0.493. The relative viability (NCI-H1623; first compound 0.06325 µM) was 0.407, the relative viability (NCI-H1623; first compound 0.2 µM) was 0.307 and the relative viability (NCI-H1355; first compound 0.002 µM) was 0.431. The relative viability (NCI-H1355; first compound 0.006325 µM) was 0.456, the relative viability (NCI-H1355; first compound 0.02 µM) was 0.382 and the relative viability (NCI-H1355; first compound 0.06325 µM) was 0.254. For the same compound, the relative viability (NCI-H1355; first compound 0.2 µM) was 0.17, the relative viability (A549; first compound 0.002 µM) was 0.166 and the relative viability (A549; first compound 0.006325 µM) was 0.132. For the same compound, the relative viability (A549; first compound 0.02 µM) was 0.0856, the relative viability (A549; first compound 0.06325 µM) was 0.0194 and the relative viability (A549; first compound 0.2 µM) was 0.0225. The relative viability (LCLC-97TM1; first compound 0.002 µM) was 0.399, the relative viability (LCLC-97TM1; first compound 0.006325 µM) was 0.374 and the relative viability (LCLC-97TM1; first compound 0.02 µM) was 0.426. It also gave a relative viability (LCLC-97TM1; first compound 0.06325 µM) of 0.428 and a relative viability (LCLC-97TM1; first compound 0.2 µM) of 0.102.
`Cc1cn(-c2cc(NC(=O)c3ccc(C)c(Nc4nccc(-c5cccnc5)n4)c3)cc(C(F)(F)F)c2)cn1` [Nilotinib] + N=C(N)NC(=N)NCCc1ccccc1 [Phenformin] (partner 250 µM) was tested, and the relative viability (NCI-H2342; first compound 0.001 µM) was 0.534, the relative viability (NCI-H2342; first compound 0.003162 µM) was 0.614 and the relative viability (NCI-H2342; first compound 0.01 µM) was 0.556. The relative viability (NCI-H2342; first compound 0.03162 µM) was 0.523, the relative viability (NCI-H2342; first compound 0.1 µM) was 0.504 and the relative viability (NCI-H1437; first compound 0.001 µM) was 0.325. It also gave a relative viability (NCI-H1437; first compound 0.003162 µM) of 0.335, a relative viability (NCI-H1437; first compound 0.01 µM) of 0.331 and a relative viability (NCI-H1437; first compound 0.03162 µM) of 0.23. For the same compound, the relative viability (NCI-H1437; first compound 0.1 µM) was 0.224, the relative viability (NCI-H596; first compound 0.001 µM) was 0.588 and the relative viability (NCI-H596; first compound 0.003162 µM) was 0.697. It also gave a relative viability (NCI-H596; first compound 0.01 µM) of 0.909, a relative viability (NCI-H596; first compound 0.03162 µM) of 0.475 and a relative viability (NCI-H596; first compound 0.1 µM) of 0.432. It also gave a relative viability (NCI-H1623; first compound 0.001 µM) of 0.578, a relative viability (NCI-H1623; first compound 0.003162 µM) of 0.585 and a relative viability (NCI-H1623; first compound 0.01 µM) of 0.605. It also gave a relative viability (NCI-H1623; first compound 0.03162 µM) of 0.566, a relative viability (NCI-H1623; first compound 0.1 µM) of 0.601 and a relative viability (NCI-H1355; first compound 0.001 µM) of 0.451. It also gave a relative viability (NCI-H1355; first compound 0.003162 µM) of 0.426, a relative viability (NCI-H1355; first compound 0.01 µM) of 0.401 and a relative viability (NCI-H1355; first compound 0.03162 µM) of 0.361. It also gave a relative viability (NCI-H1355; first compound 0.1 µM) of 0.424, a relative viability (A549; first compound 0.001 µM) of 0.147 and a relative viability (A549; first compound 0.003162 µM) of 0.27. It also gave a relative viability (A549; first compound 0.01 µM) of 0.274, a relative viability (A549; first compound 0.03162 µM) of 0.172 and a relative viability (A549; first compound 0.1 µM) of 0.14. The relative viability (LCLC-97TM1; first compound 0.001 µM) was 0.393, the relative viability (LCLC-97TM1; first compound 0.003162 µM) was 0.468 and the relative viability (LCLC-97TM1; first compound 0.01 µM) was 0.467. The relative viability (LCLC-97TM1; first compound 0.03162 µM) was 0.426 and the relative viability (LCLC-97TM1; first compound 0.1 µM) was 0.453.
